According to patent EP1377579B1 (Aventis Pharmaceuticals Inc., priority 2000, dated 2002):
Structures can show the parent of a compound that is named as a salt. Where two headings read alike, the source gives them in different places.

Assays:
cdk2/cyclin E = cdk2/cyclin E (Homo sapiens, UniProt P24941); test: Cyclin-dependent kinase assay, cdk2/cyclin E; conditions: CDK2 IC50, nM, GST-pRb substrate, 10 µM ATP
PC-3 = test: In vitro proliferation assay (MTT), PC-3; assay type: cell-based, human; conditions: value (SD, n) where given, read-out: PC-3 Prostate (IC50 µM)
Procedure, shortened: (§1)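 Cells plated at 1000 to 2500 cells/well, allowed to attach overnight, then exposed to compounds for 3 days. Viable cells estimated by MTT dye, solubilized in DMSO, absorbance at 570 nm; IC50 taken from raw data.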

cdk4/cyclin D1 = cdk4/cyclin D1 (Homo sapiens, UniProt P11802); test: Cyclin-dependent kinase assay, cdk4/cyclin D1; assay type: biochemical; conditions: cyclin D1/cdk4; GST-pRb substrate, 10 µM ATP
cdk4/cyclin D1, sequence (P11802 whole entry): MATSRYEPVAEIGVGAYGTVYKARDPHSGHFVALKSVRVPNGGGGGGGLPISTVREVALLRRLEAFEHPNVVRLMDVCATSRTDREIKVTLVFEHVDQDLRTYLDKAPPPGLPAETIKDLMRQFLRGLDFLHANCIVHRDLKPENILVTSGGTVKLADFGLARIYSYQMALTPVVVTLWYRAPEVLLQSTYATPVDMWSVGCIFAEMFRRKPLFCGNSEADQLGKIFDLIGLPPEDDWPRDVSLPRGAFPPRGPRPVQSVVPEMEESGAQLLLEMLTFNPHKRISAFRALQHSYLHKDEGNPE
cdk4/cyclin D1, sequence (P24385 whole entry partner): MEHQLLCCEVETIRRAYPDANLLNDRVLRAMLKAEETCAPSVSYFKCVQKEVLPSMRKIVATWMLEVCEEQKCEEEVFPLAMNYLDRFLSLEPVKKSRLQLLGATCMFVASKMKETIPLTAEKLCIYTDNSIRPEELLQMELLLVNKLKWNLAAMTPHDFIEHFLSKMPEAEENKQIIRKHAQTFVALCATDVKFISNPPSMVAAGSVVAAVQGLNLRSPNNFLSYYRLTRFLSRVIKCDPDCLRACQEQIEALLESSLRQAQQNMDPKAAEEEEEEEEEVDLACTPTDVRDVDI

cdk1/cyclin B = cdk1/cyclin B (Homo sapiens, UniProt P06493); test: Cyclin-dependent kinase assay, cdk1/cyclin B; conditions: CDK1 IC50, nM, Histone H1, 10 µM ATP
cdk1/cyclin B, sequence (P06493 whole entry): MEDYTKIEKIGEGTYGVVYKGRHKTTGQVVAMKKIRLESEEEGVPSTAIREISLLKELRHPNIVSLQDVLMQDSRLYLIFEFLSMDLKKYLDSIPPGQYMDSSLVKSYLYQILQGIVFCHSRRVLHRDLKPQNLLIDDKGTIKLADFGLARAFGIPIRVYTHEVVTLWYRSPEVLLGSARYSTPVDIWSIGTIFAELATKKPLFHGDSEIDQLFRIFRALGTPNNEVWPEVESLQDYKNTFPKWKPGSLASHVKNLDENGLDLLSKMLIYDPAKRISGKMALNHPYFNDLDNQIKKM
cdk1/cyclin B, sequence (P14635 whole entry partner): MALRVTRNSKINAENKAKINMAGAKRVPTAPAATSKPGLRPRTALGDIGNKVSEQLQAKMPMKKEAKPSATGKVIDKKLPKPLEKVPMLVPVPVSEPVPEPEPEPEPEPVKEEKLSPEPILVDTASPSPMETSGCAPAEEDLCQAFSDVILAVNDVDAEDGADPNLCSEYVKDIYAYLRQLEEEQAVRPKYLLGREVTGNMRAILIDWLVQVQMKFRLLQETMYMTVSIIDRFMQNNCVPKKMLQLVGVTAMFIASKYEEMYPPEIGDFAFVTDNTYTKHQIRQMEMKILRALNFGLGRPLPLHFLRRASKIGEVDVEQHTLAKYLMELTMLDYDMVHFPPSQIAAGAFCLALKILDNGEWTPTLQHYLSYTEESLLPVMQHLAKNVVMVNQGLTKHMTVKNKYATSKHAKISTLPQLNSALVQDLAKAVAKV

MDA-MB-435 = test: In vitro proliferation assay (MTT), MDA-MB-435; assay type: cell-based, human; conditions: value (SD, n) where given, read-out: MB-435 Breast (IC50 µM)
Procedure, shortened: as §1

[1] = Homo sapiens, MDA-MB-435, MTT assay

IC50 (cdk2/cyclin E) | IC50 (PC-3; Homo sapiens, PC-3, MTT assay) | IC50 (cdk4/cyclin D1) | IC50 (cdk1/cyclin B) | IC50 (MDA-MB-435; [1]) | IC50 (PC-3; MTT assay) | IC50 (MDA-MB-435; MTT assay) | Compound
91 nM | 0.61 µM | 698 nM | 53 nM | 0.64 µM |  |  | N[C@H]1CC[C@H](Nc2nc(NC3CCN(C(=O)c4cccc(Br)c4)CC3)c3ncn(C4CCCC4)c3n2)CC1 [compound 71, trans-1-{4-[2-(4-Amino-cyclohexylamino)-9-cyclopentyl-9H-purin-6-ylamino]-piperidin-1-yl}-1-(3-bromophenyl)-methanone]
89 nM |  | 864 nM | 51 nM |  | 0.03 µM | 0.03 µM | N[C@H]1CC[C@H](Nc2nc(NC3CCN(C(=O)c4cccc(Cl)c4)CC3)c3ncn(C4CCCC4)c3n2)CC1 [compound 72, trans-1-{4-[2-(4-Amino-cyclohexylamino)-9-cyclopentyl-9H-purin-6-ylamino]-piperidin-1-yl}-1-(3-chloro-phenyl)-methanone]
73 nM | 1.35 µM | 410 nM | 100 nM | 1.31 µM |  |  | Cc1cccc(C(=O)N2CCC(Nc3nc(N[C@H]4CC[C@H](N)CC4)nc4c3ncn4C3CCCC3)CC2)c1 [compound 73, trans-1-{4-[2-(4-Amino-cyclohexylamino)-9-cyclopentyl-9H-purin-6-ylamino]-piperidin-1-yl}-1-(3-methyl-phenyl)-methanone]
239 nM | 1.25 µM | 560 nM | 62 nM | 1.07 µM |  |  | N[C@H]1CC[C@H](Nc2nc(NC3CCN(C(=O)c4ccc(Br)cc4)CC3)c3ncn(C4CCCC4)c3n2)CC1 [compound 74, trans-1-{4-[2-(4-Amino-cyclohexylamino)-9-cyclopentyl-9H-purin-6-ylamino]-piperidin-1-yl}-1-(4-bromo-phenyl)-methanone]
58 nM | 1.7 µM | 801 nM | 71 nM | 1.38 µM |  |  | N[C@H]1CC[C@H](Nc2nc(NC3CCN(C(=O)c4ccc(Cl)cc4)CC3)c3ncn(C4CCCC4)c3n2)CC1 [compound 75, trans-1-{4-[2-(4-Amino-cyclohexylamino)-9-cyclopentyl-9H-purin-6-ylamino]-piperidin-1-yl}-1-(4-chloro-phenyl)-methanone]
179 nM | 1.04 µM | 787 nM | 57 nM | 1.47 µM |  |  | N[C@H]1CC[C@H](Nc2nc(NC3CCN(C(=O)c4ccc(I)cc4)CC3)c3ncn(C4CCCC4)c3n2)CC1 [compound 76, trans-1-{4-[2-(4-Amino-cyclohexylamino)-9-cyclopentyl-9H-purin-6-ylamino]-piperidin-1-yl}-1-(4-iodo-phenyl)-methanone]
71 nM | 1.19 µM | 606 nM | 100 nM | 1.03 µM |  |  | Cc1ccc(C(=O)N2CCC(Nc3nc(N[C@H]4CC[C@H](N)CC4)nc4c3ncn4C3CCCC3)CC2)cc1 [compound 77, trans-1-{4-[2-(4-Amino-cyclohexylamino)-9-cyclopentyl-9H-purin-6-ylamino]-piperidin-1-yl}-1-(4-methyl-phenyl)-methanone]
155 nM | 1.53 µM | 523 nM | 101 nM | 1.56 µM |  |  | N[C@H]1CC[C@H](Nc2nc(NC3CCN(C(=O)c4ccc(Cl)cc4Cl)CC3)c3ncn(C4CCCC4)c3n2)CC1 [compound 78, trans-1-{4-[2-(4-Amino-cyclohexylamino)-9-cyclopentyl-9H-purin-6-ylamino]-piperidin-1-yl}-1-(2,4-dichloro-phenyl)-methanone]
73 nM | 0.27 µM | 483 nM | 44 nM | 0.25 µM |  |  | N[C@H]1CC[C@H](Nc2nc(NC3CCN(C(=O)c4cc(Cl)cc(Cl)c4)CC3)c3ncn(C4CCCC4)c3n2)CC1 [compound 79, trans-1-{4-[2-(4-Amino-cyclohexylamino)-9-cyclopentyl-9H-purin-6-ylamino]-piperidin-1-yl}-1-(3,5-dichloro-phenyl)-methanone]
39 nM | > 50 µM | 8100 nM | 244 nM | > 50 µM |  |  | CC(C)n1cnc2c(NC3CCN(C(=O)COc4ccccc4)CC3)nc(N[C@H]3CC[C@H](N)CC3)nc21 [compound 80, trans-1-{4-[2-(4-Amino-cyclohexylamino)-9-isopropyl-9H-purin-6-ylamino]-piperidin-1-yl}-2-phenoxy-ethanone dihydrochloride]
731 nM | 1.21 µM | 8000 nM | 750 nM | 2.27 µM |  |  | CCOC(=O)N1CCC(Nc2nc(N[C@H]3CC[C@H](N)CC3)nc3c2ncn3C(C)C)CC1 [compound 104, trans-4-[2-(4-Amino-cyclohexylamino)-9-isopropyl-9H-purin-6-ylamino]-piperidine-1-carboxylic acid ethyl ester dihydrochloride]
7 nM | 5.89 µM | 39 nM | 18 nM | 6.54 µM |  |  | CC(=O)Nc1nc(C)c(S(=O)(=O)N2CCC(Nc3nc(N[C@H]4CC[C@H](N)CC4)nc4c3ncn4C3CCCC3)CC2)s1 [compound 113, trans-N-(5-{4-[2-(4-Amino-cyclohexylamino)-9-cyclopentyl-9H-purin-6-ylamino]-piperidine-1-sulfonyl}-4-methyl-thiazol-2-yl)-acetamide dihydrochloride]
15 nM | 0.48 µM | 80 nM | 5 nM | 0.33 µM |  |  | N[C@H]1CC[C@H](Nc2nc(NC3CCN(S(=O)(=O)c4ccc(Br)cc4)CC3)c3ncn(C4CCCC4)c3n2)CC1 [compound 114, trans-N^2-(4-Amino-cyclohexyl)-9-cyclopentyl-N^6-[1-(4-bromo-benzenesulfonyl)-piperidin-4-yl]-9H-purine-2,6-diamine dihydrochloride]
5 nM | 5.1 µM | 14 nM | 5 nM | 4.24 µM |  |  | CC(=O)Nc1ccc(S(=O)(=O)N2CCC(Nc3nc(N[C@H]4CC[C@H](N)CC4)nc4c3ncn4C3CCCC3)CC2)cc1 [compound 115, trans-N-(4-{4-[2-(4-Amino-cyclohexylamino)-9-cyclopentyl-9H-purin-6-ylamino]-piperidine-1-sulfonyl}-phenyl)-acetamide dihydrochloride]
32 nM | 1.15 µM | 382 nM | 18 nM | 0.64 µM |  |  | N[C@H]1CC[C@H](Nc2nc(NC3CCN(S(=O)(=O)c4ccc5ccccc5c4)CC3)c3ncn(C4CCCC4)c3n2)CC1 [compound 116, trans-N^2-(4-Amino-cyclohexyl)-9-cyclopentyl-N^6-[1-(naphthalene-2-sulfonyl)-piperidin-4-yl]-9H-purine-2,6-diamine dihydrochloride]
38 nM | 0.38 µM | 38 nM | 22 nM | 0.28 µM |  |  | N[C@H]1CC[C@H](Nc2nc(NC3CCN(S(=O)(=O)/C=C/c4ccccc4)CC3)c3ncn(C4CCCC4)c3n2)CC1 [compound 118, trans-N^2-(4-Amino-cyclohexyl)-9-cyclopentyl-N^6-[1-((E)-2-phenyl-ethenesulfonyl)-piperidin-4-yl]-9H-purine-2,6-diamine dihydrochloride]
31 nM | 0.52 µM | 65 nM | 25 nM | 0.4 µM |  |  | N[C@H]1CC[C@H](Nc2nc(NC3CCN(S(=O)(=O)Cc4ccccc4)CC3)c3ncn(C4CCCC4)c3n2)CC1 [compound 119, trans-N^2-(4-Amino-cyclohexyl)-9-cyclopentyl-N^6-(1-phenylmethanesulfonyl-piperidin-4-yl)-9H-purine-2,6-diamine dihydrochloride]
50 nM | 0.82 µM | 83 nM | 120 nM | 0.66 µM |  |  | N[C@H]1CC[C@H](Nc2nc(NC3CCN(S(=O)(=O)c4c(Cl)cccc4Cl)CC3)c3ncn(C4CCCC4)c3n2)CC1 [compound 121, trans-N^2-(4-Amino-cyclohexyl)-9-cyclopentyl-N^6-[1-(2,6-dichloro-benzenesulfonyl)-piperidin-4-yl]-9H-purine-2,6-diamine dihydrochloride]
38 nM | 0.65 µM | 590 nM | 10 nM | 0.48 µM |  |  | N[C@H]1CC[C@H](Nc2nc(NC3CCN(S(=O)(=O)c4ccc(I)cc4)CC3)c3ncn(C4CCCC4)c3n2)CC1 [compound 122, trans-N^2-(4-Amino-cyclohexyl)-9-cyclopentyl-N^6-[1-(4-iodo-benzenesulfonyl)-piperidin-4-yl]-9H-purine-2,6-diamine dihydrochloride]
26 nM | 0.56 µM | 77 nM | 10 nM | 0.44 µM |  |  | Cc1ccc(S(=O)(=O)N2CCC(Nc3nc(N[C@H]4CC[C@H](N)CC4)nc4c3ncn4C3CCCC3)CC2)cc1 [compound 124, trans-N^2-(4-Amino-cyclohexyl)-9-cyclopentyl-N^6-[1-(toluene-4-sulfonyl)-piperidin-4-yl]-9H-purine-2,6-diamine dihydrochloride]
